From patent US10981911B2, “Imidazopyrrolopyridine as inhibitors of the JAK family of kinases” (Janssen Pharmaceutica NV, priority 2016, dated 2021) come the findings set out here.

Holding throughout (assay type): biochemical
One experiment deals with JAK2-JH1JH2 (Homo sapiens (Human), UniProt O60674). The experiment is described as follows: Enzymatic inhibition assay (RapidFire HTMS), JAK2. Particulars: 30 μM ATP, 40 μM substrate. An excerpt:
(§1) LC/MS grade Water and Acetonitrile (ACN), were purchased from HoneyWell, Burdick & Jackson (Muskegon, Mich., USA). Dimethylsulfoxide 99.8% (DMSO) and Trifluoroacetic Acid 99.5% (TFA) were purchased from EMD Chemical (Gibbstown, N.J., USA). Adenosine triphosphate (ATP), 4-Morpholinepropanesulfonic acid (MOPS), Magnesium chloride (MgCl2), ethylenediaminetetraacetic acid (EDTA), dithiothreitol (DTT), formic acid >95% (FA) and Tween-20 were purchased from Sigma (St Louis, Mo., USA). 384-well polypropylene plates, Cat #781280 were purchased from Greiner (Monroe, N.C.), RapidFire™ cartridge A C4 Column (Agilent Technologies, Santa Clara, Calif.).
(§2) The HTMS experiments were performed in positive ionization mode on a RapidFire 300 instrument (Agilent Technologies, Santa Clara, Calif.), coupled with an ABSiex QTrap 4000 system with an Electrospray Ionization source (RF-MS) (Concord, ON, Canada). […] The entire system was operated using the RapidFire software interfaced with Analyst software for the mass spectrometer.
(§3) 11-point dosing series were made for each compound by serially diluting 1:3 or 1:4 in DMSO, with point 12 being a DMSO control. From the serial dilution plates, sample was transferred to a 384 wells assay plate (#781280, Greiner, Monroe, N.C.) using Labcyte Echo (Sunnyvale, Calif.), or Biosero ATS (San Diego, Calif.). The compounds were tested in duplicate. Column 12 was used for positive controls, and column 24 contained negative controls with no enzyme added. A compound from our internal collection, with inhibitory activity for JAK isoforms, was used as a reference compound. The final concentration of DMSO was ≤0.25% in a 20 μL reaction. […] The Tyk2 enzyme was pre-incubated with 2 mM ATP for 30 min prior to the reaction initiation. Immediately after the addition of the enzyme to the reaction mixture, the plate was centrifuged at 1000 rpm for 1 minute and incubated at 25° C. for 45 minutes for JAK 3 and 90 minutes for JAK1, JAK2 and Tyk2. The reaction was quenched by the addition of 20 μL of 0.5% TFA containing 0.15 μM of internal standard peptide using Multidrop Combi reagent dispenser (Thermo Scientific, Waltham, Mass.). […] After the quench, the assay plate was centrifuged at 3000 rpm for 3 minutes and sealed with pierceable aluminum foil (Cat #06644-001, Agilent) using a PlateLoc (Agilent Technologies, Santa Clara, Calif.). The plates then were transferred on to the RapidFire for the MS analysis. Compound inhibition was assessed by a decrease of the phosphorylated product levels in sample wells compared to the non-inhibited enzyme reaction.
(§4) The sample analysis on the RapidFire was performed using a mobile phase A consisting of Water/TFA/FA (100:0.01:0.1, v/v/v), a mobile phase B consisting of ACN/Water/TFA/FA (80:20:0.01:0.1, v/v/v). […] The samples were aspirated directly from the 384 assay plate and delivered onto RF-MS microscale solid-phase C4 extraction cartridge (Type A). The undesired component such as salt, cofactor, detergent and large protein were washed out and the retained analytes (substrate, product and IS) were coeluted directly onto the ABSiex Qtrap 4000 system.

A further experiment addresses Tyk2-JH1JH2 (Homo sapiens (Human), UniProt P29597, C1142A/C936A). The experiment is described as follows: Enzymatic inhibition assay (RapidFire HTMS), Tyk2. Particulars: 50 μM ATP, 200 μM substrate.
Text: as §1, §2, §3, §4

The target in another experiment is JAK1-JH1JH2 (Homo sapiens (Human), UniProt P23458). In words: Enzymatic inhibition assay (RapidFire HTMS), JAK1. Particulars: 12.5 μM ATP, 200 μM substrate; read-out: JAK1-JH2JH1 IC50.
Text: as §1, §2, §3, §4

The target in the next experiment is JAK3-JH1JH2 (Homo sapiens (Human), UniProt P52333). In words: Enzymatic inhibition assay (RapidFire HTMS), JAK3. To be noted: 150 μM ATP, 40 μM substrate.
Text: as §1, §2
as §3, with “compound.” for “compound. The final concentration of DMSO was ≤0.25% in a 20 μL reaction.”
as §4

Tyk2-JH1JH2, sequence (P29597 580-1182 C936A/C1142A): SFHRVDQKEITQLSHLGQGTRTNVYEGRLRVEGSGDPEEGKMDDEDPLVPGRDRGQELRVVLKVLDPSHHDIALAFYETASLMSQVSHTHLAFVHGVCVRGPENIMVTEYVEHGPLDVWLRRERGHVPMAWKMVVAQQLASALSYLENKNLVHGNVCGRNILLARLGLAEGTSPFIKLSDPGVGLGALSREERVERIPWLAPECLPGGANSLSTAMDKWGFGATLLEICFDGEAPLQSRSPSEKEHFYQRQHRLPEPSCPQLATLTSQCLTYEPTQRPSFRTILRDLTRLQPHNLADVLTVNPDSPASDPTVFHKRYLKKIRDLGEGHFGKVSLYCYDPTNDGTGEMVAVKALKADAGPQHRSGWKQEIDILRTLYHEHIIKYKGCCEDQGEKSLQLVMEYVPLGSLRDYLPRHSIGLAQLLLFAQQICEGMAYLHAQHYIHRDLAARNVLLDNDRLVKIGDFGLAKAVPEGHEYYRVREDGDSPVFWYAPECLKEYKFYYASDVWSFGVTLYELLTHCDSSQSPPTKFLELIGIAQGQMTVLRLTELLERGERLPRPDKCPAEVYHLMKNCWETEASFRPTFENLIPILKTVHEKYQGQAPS
JAK2-JH1JH2, sequence (O60674 532-1132): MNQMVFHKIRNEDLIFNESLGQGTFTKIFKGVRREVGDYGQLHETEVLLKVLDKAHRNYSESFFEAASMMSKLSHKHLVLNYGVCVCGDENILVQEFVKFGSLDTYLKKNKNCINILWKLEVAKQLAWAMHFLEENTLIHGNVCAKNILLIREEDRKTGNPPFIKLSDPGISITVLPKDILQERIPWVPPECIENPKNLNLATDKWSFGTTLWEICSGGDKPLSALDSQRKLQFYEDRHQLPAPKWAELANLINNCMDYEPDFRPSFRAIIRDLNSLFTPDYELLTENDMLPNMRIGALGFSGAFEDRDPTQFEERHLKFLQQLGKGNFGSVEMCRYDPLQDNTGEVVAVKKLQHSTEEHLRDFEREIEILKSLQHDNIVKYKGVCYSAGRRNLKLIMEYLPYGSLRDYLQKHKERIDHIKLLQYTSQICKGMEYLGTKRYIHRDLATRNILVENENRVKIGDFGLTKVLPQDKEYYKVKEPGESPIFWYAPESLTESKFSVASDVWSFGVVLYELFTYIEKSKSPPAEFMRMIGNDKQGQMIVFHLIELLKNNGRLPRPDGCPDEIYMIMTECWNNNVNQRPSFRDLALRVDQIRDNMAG
JAK1-JH1JH2, sequence (P23458 574-1154): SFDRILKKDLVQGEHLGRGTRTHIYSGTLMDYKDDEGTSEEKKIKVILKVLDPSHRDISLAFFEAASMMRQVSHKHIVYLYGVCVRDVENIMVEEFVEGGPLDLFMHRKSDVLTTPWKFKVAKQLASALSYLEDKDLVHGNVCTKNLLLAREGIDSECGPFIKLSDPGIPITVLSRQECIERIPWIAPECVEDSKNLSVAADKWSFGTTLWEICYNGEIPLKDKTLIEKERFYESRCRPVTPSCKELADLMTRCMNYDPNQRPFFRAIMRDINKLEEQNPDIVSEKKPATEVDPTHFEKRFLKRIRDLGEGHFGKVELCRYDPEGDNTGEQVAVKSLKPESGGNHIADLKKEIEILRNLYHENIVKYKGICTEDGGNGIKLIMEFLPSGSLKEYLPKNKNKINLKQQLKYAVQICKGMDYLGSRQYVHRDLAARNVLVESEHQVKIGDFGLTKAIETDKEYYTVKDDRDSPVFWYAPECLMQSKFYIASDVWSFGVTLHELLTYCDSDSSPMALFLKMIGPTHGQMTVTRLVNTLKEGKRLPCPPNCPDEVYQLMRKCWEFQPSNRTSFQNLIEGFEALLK
JAK3-JH1JH2, sequence (P52333 512-1124): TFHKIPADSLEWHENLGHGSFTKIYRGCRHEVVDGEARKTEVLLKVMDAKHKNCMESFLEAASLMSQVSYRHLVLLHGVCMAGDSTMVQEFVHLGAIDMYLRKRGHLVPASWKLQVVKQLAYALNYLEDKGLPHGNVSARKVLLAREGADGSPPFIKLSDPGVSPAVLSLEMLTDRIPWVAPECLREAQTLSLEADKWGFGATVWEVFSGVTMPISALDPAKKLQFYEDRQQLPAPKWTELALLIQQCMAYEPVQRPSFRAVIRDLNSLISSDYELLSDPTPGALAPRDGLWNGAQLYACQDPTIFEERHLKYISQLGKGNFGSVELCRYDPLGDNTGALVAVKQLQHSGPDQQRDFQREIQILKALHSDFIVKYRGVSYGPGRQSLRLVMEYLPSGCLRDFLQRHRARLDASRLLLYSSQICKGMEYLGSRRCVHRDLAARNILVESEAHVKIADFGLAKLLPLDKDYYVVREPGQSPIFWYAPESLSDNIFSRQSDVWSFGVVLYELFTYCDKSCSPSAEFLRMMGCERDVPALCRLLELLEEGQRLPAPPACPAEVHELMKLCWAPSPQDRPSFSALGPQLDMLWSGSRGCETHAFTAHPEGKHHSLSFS

In the case of `N#CC[C@H]1CC[C@H](n2c(CC(=O)Nc3ccc(CO)cc3)nc3cnc4[nH]ccc4c32)CC1` [Ex. 7, 2-(1-((1r,4r)-4-(Cyanomethyl)cyclohexyl)-1,6-dihydroimidazo[4,5-d]pyrrolo[2,3-b]pyridin-2-yl)-N-(4-(hydroxymethyl)phenyl)acetamide], the IC50 (as a rule, the midpoint of a concentration-inhibition curve) against JAK2-JH1JH2 was found to be 0.6 nM; on Tyk2-JH1JH2, 0.9 nM; on JAK1-JH1JH2, 0.1 nM; at JAK3-JH1JH2 it was 13.3 nM.

As for `N#CCc1ccc(NC(=O)Cc2nc3cnc4[nH]ccc4c3n2[C@H]2CC[C@H](CC#N)CC2)cc1` [Ex. 8, 2-(1-((1r,4r)-4-(Cyanomethyl)cyclohexyl)-1,6-dihydroimidazo[4,5-d]pyrrolo[2,3-b]pyridin-2-yl)-N-(4-(cyanomethyl)phenyl)acetamide], the IC50 on JAK2-JH1JH2 turned out to be 0.5 nM; against Tyk2-JH1JH2 it was 0.7 nM; on JAK1-JH1JH2, 0.1 nM; against JAK3-JH1JH2 it was 12.9 nM.

In the case of `N#CC[C@H]1CC[C@H](n2c(-c3nc[nH]n3)nc3cnc4[nH]ccc4c32)CC1` [Ex. 9, 2-((1r,4r)-4-(2-(1H-1,2,4-Triazol-3-yl)imidazo[4,5-d]pyrrolo[2,3-b]pyridin-1(6H)-yl)cyclohexyl)acetonitrile], the 50% inhibitory concentration (IC50) on JAK2-JH1JH2 came to 0.3 nM; at Tyk2-JH1JH2, 1.6 nM; at JAK1-JH1JH2, 0.1 nM; at JAK3-JH1JH2 it was 48.9 nM.

`N#CC[C@H]1CC[C@H](n2c(CC(=O)N3CCC(O)CC3)nc3cnc4[nH]ccc4c32)CC1` [Ex. 12, 2-((1r,4r)-4-(2-(2-(4-Hydroxypiperidin-1-yl)-2-oxoethyl)imidazo[4,5-d]pyrrolo[2,3-b]pyridin-1(6H)-yl)cyclohexyl)acetonitrile]: the IC50 is 9.2 nM at JAK2-JH1JH2, 1.4 nM at Tyk2-JH1JH2, 0.1 nM on JAK1-JH1JH2 and 99.4 nM against JAK3-JH1JH2.

In the case of `N#CCCS(=O)(=O)NCc1nc2cnc3[nH]ccc3c2n1[C@H]1CC[C@H](CC#N)CC1` [Ex. 13, 2-Cyano-N-((1-((1r,4r)-4-(cyanomethyl)cyclohexyl)-1,6-dihydroimidazo[4,5-d]pyrrolo[2,3-b]pyridin-2-yl)methyl)ethanesulfonamide], the IC50 against JAK2-JH1JH2 amounted to 7.1 nM; against Tyk2-JH1JH2, 3.3 nM; at JAK1-JH1JH2, 0.1 nM; on JAK3-JH1JH2, 651 nM.

On to `N#CC[C@H]1CC[C@H](n2c(CC(=O)NCc3ccncn3)nc3cnc4[nH]ccc4c32)CC1` [Ex. 14, 2-(1-((1r,4r)-4-(Cyanomethyl)cyclohexyl)-1,6-dihydroimidazo[4,5-d]pyrrolo[2,3-b]pyridin-2-yl)-N-(pyrimidin-4-ylmethyl)acetamide], for which the half-inhibitory concentration (IC50) was 1.8 nM at JAK2-JH1JH2, 2.8 nM on Tyk2-JH1JH2, 0.1 nM on JAK1-JH1JH2 and 43.7 nM against JAK3-JH1JH2.

Turning to `[H]/N=C(\c1ccccc1)N(O)Cc1nc2cnc3[nH]ccc3c2n1[C@H]1CC[C@H](CC#N)CC1` [Ex. 17A, (E)-N-((1-((1r,4r)-4-(Cyanomethyl)cyclohexyl)-1,6-dihydroimidazo[4,5-d]pyrrolo[2,3-b]pyridin-2-yl)methyl)-N-hydroxybenzimidamide], the IC50 against JAK2-JH1JH2 amounted to 1.2 nM; against Tyk2-JH1JH2, 1.4 nM; on JAK1-JH1JH2, 0.1 nM; on JAK3-JH1JH2 it was 65.8 nM.

In the case of `[H]/N=C(/c1ccccc1)N(O)Cc1nc2cnc3[nH]ccc3c2n1[C@H]1CC[C@H](CC#N)CC1` [Ex. 17B, (Z)—N-((1-((1r,4r)-4-(Cyanomethyl)cyclohexyl)-1,6-dihydroimidazo[4,5-d]pyrrolo[23-b]pyridin-2-yl)methyl)-N-hydroxybenzimidamide], the concentration for half-maximal inhibition (IC50) at JAK2-JH1JH2 worked out at 4.5 nM; against Tyk2-JH1JH2, 2.9 nM; at JAK1-JH1JH2, 0.5 nM; against JAK3-JH1JH2, 102 nM.

On to `N#CC[C@H]1CC[C@H](n2c(C(=O)N3CCC(O)(c4ccccn4)CC3)nc3cnc4[nH]ccc4c32)CC1` [Ex. 88, 2-((1r,4r)-4-(2-(4-Hydroxy-4-(pyridin-2-yl)piperidine-1-carbonyl)imidazo[4,5-d]pyrrolo[2,3-b]pyridin-1(6H)-yl)cyclohexyl)acetonitrile], for which the IC50 at JAK2-JH1JH2 amounted to 43.4 nM; against Tyk2-JH1JH2 it was 49.5 nM; on JAK1-JH1JH2 it was 0.4 nM.

Consider `CCOP(=O)(Cc1ccc(NC(=O)Cc2nc3cnc4[nH]ccc4c3n2[C@H]2CC[C@H](CC#N)CC2)cc1)OCC` [Ex. 108, Diethyl 4-(2-(1-((1r,4r)-4-(cyanomethyl)cyclohexyl)-1,6-dihydroimidazo[4,5-d]pyrrolo[2,3-b]pyridin-2-yl)acetamido)benzylphosphonate], for which the IC50 turned out to be 3.8 nM against JAK2-JH1JH2, 7.1 nM against Tyk2-JH1JH2 and 0.6 nM at JAK1-JH1JH2.

Take `C[Si](C)(C)[C@H]1CC[C@@H](NC(=O)Cc2nc3cnc4[nH]ccc4c3n2[C@H]2CC[C@H](CC#N)CC2)CC1` [Ex. 135, 2-(1-((1r,4r)-4-(Cyanomethyl)cyclohexyl)-1,6-dihydroimidazo[4,5-d]pyrrolo[2,3-b]pyridin-2-yl)-N-((1S,4S)-4-(trimethylsilyl)cyclohexyl)acetamide]: the values for the IC50 against JAK2-JH1JH2, against Tyk2-JH1JH2 and at JAK1-JH1JH2 were 4 nM, 8.7 nM and 0.8 nM, respectively.

With `N#CC[C@H]1CC[C@H](n2c(C(=O)NCC3(O)CCCCCC3)nc3cnc4[nH]ccc4c32)CC1` [Ex. 136, 1-((1r,4r)-4-(Cyanomethyl)cyclohexyl)-N-((1-hydroxycycloheptyl)methyl)-1,6-dihydroimidazo[4,5-d]pyrrolo[2,3-b]pyridine-2-carboxamide], the IC50 at Tyk2-JH1JH2 was determined as 19.1 nM; on JAK1-JH1JH2 it was 0.9 nM; at JAK3-JH1JH2 it was 65.9 nM.

`COCCNC(=O)c1nc2cnc3[nH]ccc3c2n1[C@H]1CC[C@H](CC#N)CC1` [Ex. 145, 1-((1r,4r)-4-(Cyanomethyl)cyclohexyl)-N-(2-methoxyethyl)-1,6-dihydroimidazo[4,5-d]pyrrolo[2,3-b]pyridine-2-carboxamide]: the IC50 against Tyk2-JH1JH2 turned out to be 19.4 nM; at JAK1-JH1JH2, 1.1 nM; at JAK3-JH1JH2, 175 nM.

For the molecule `CC(C)(C)COC(=O)NCc1nc2cnc3[nH]ccc3c2n1[C@H]1CC[C@H](CC#N)CC1` [Ex. 154, Neopentyl ((1-((1r,4r)-4-(Cyanomethyl)cyclohexyl)-1,6-dihydroimidazo[4,5-d]pyrrolo[2,3-b]pyridin-2-yl)methyl)carbamate], the IC50 against Tyk2-JH1JH2 is 16.1 nM; on JAK1-JH1JH2, 1.2 nM; against JAK3-JH1JH2, 408 nM.

In the case of `C[Si](C)(C)[C@H]1CC[C@H](NC(=O)Cc2nc3cnc4[nH]ccc4c3n2[C@H]2CC[C@H](CC#N)CC2)CC1` [Ex. 167, 2-(1-((1r,4r)-4-(Cyanomethyl)cyclohexyl)-1,6-dihydroimidazo[4,5-d]pyrrolo[2,3-b]pyridin-2-yl)-N-((1r,4r)-4-(trimethylsilyl)cyclohexyl)acetamide], the IC50 is 20.8 nM on JAK2-JH1JH2, 25.5 nM against Tyk2-JH1JH2 and 1.9 nM at JAK1-JH1JH2.
